Results reported in patent US8580965B2, “Substituted sulfonamide compounds” (Gruenenthal GmbH, priority 2006, dated 2013).

Legend:
[1] = target: T1, human B1R receptor (bradykinin 1 receptor) (Homo sapiens, UniProt P46663); experiment: FLIPR Ca2+ assay (Fluo-4) on CHO K1 cells stably transfected with the human B1R gene; % activation and % inhibition at 10 μM; assay type: cell-based; details: CHO-K1, test substance 10 μM; CHO K1 hB1R cells; Ca2+ inflow after 0.5 nM Lys-Des-Arg9-bradykinin; read-out: B1R antagonism, human [10 μM] % inhibition
T1 construct: host or cells: CHO K1 cells (hB1R cells)
T1 sequence (P46663 1-353): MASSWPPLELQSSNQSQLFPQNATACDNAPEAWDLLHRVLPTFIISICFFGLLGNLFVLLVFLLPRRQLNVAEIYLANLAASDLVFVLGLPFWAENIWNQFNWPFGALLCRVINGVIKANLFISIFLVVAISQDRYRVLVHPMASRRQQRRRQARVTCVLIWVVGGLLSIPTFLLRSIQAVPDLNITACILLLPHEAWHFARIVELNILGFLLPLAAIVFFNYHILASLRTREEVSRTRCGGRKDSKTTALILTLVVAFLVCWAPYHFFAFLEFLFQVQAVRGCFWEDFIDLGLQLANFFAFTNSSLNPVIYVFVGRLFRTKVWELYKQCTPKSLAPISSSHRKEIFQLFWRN
In short: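 CHO K1 cells stably expressing human or rat B1R, Fluo-4 loaded, read by FLIPR (peak fluorescence). Compound at 10 µM first gives % activation versus agonist; after 10 min, agonist (human: 0.5 nM Lys-Des-Arg9-bradykinin; rat: 100 nM Des-Arg9-bradykinin) gives % inhibition relative to maximal inhibition.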

[2] = target: T2, B1R receptor of the rat (bradykinin 1 receptor) (Rattus norvegicus, UniProt P97583); experiment: FLIPR Ca2+ assay (Fluo-4) on CHO K1 cells stably transfected with the B1R gene of the rat; % activation and % inhibition at 10 μM; assay type: cell-based; details: CHO-K1, test substance 10 μM; CHO K1 rB1R cells; Ca2+ inflow after 100 nM Des-Arg9-bradykinin; read-out: B1R antagonism, rat [10 μM] % inhibition
T2 construct: host or cells: CHO K1 cells (rB1R cells)
T2 sequence (P97583 1-337): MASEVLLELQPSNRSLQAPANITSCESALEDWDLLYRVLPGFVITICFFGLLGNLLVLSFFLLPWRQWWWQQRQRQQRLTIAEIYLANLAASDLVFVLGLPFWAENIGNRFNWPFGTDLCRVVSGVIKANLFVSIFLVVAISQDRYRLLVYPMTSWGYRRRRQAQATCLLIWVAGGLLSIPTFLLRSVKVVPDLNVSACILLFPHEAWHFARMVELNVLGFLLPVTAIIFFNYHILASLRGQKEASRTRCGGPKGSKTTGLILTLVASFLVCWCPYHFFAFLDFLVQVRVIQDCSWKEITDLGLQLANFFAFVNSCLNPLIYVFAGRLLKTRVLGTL
Experimental: The agonistic or antagonistic action of substances can be quantified on the bradykinin receptor 1 (B1R) of the species human and rat with ectopically expressing cell lines (CHO K1 cells) and with the aid of a Ca^2+-sensitive dye (Fluo-4) using a fluorescent imaging plate reader (FLIPR). The indication in % activation is based on the Ca^2+ signal after addition of Lys-Des-Arg^9-bradykinin (0.5 nM) or Des-Arg^9-bradykinin (100 nM). Antagonists result in a suppression of the Ca^2+ influx following administration of the agonist. The % inhibition in comparison with the maximum achievable inhibition is indicated.
Functional Investigation on the Bradykinin 1 Receptor (B1R)
The agonistic or antagonistic action of substances can be determined on the bradykinin 1 receptor (B1R) of the human and rat species with the following assay. According to this assay, the Ca^2+ inflow through the channel is quantified with the aid of a Ca^2+-sensitive dyes (Fluo-4 type, Molecular Probes Europe BV, Leiden, The Netherlands) in a fluorescent imaging plate reader (FLIPR, Molecular Devices, Sunnyvale, USA).
Chinese Hamster Ovary cells (CHO K1 cells) which are stably transfected with the human B1R gene (hB1R cells, Euroscreen s.a., Gosselies, Belgium) or the B1R gene of the rat (rB1R cells, Axxam, Milan, Italy) are used. For functional investigations, these cells are plated-out on black 96-well plates with a clear base (BD Biosciences, Heidelberg, Germany) in a density of 20,000-25,000 cells/well. Overnight, the cells are incubated at 37° C. and 5% CO2 in culture medium (hB1R cells: Nutrient Mixture Ham's F12, Gibco Invitrogen GmbH, Karlsruhe, Germany; rB1R cells: D-MEM/F12, Gibco Invitrogen, Karlsruhe, Germany) with 10 vol. % FBS (foetal bovine serum, Gibco Invitrogen GmbH, Karlsruhe, Germany). On the following day, the cells are loaded with 2.13 μM Fluo-4 (Molecular Probes Europe BV, Leiden, The Netherlands) in HBSS buffer (Hank's buffered saline solution, Gibco Invitrogen GmbH, Karlsruhe, Germany) […] (Sigma-Aldrich, Taufkirchen, Germany) and 10 mM HEPES (Sigma-Aldrich, Taufkirchen, Germany) for 60 min at 37° C. The plates are subsequently washed 2× with HBSS buffer, and HBSS buffer which additionally contains 0.1% BSA (bovine serum albumin; Sigma-Aldrich, Taufkirchen, Germany), 5.6 mM glucose and 0.05% gelatine (Merck KGaA, Darmstadt, Germany) is added. After a further incubation of 20 minutes at room temperature, the plates are inserted into the FLIPR for Ca^2+ measurement. The Ca^2+-dependent fluorescence is measured here before and after addition of substances (λex=488 nm, λem=540 nm). The quantification is effected by measurement of the highest fluorescence intensity (FC, fluorescence counts) over time.
The FLIPR protocol comprises 2 additions of substance. Test substances (10 μM) are first pipetted on to the cells and the Ca^2+ inflow is compared with the control (hB1R: Lys-Des-Arg^9-bradykinin 0.5 nM; rB1R: Des-Arg^9-bradykinin 100 nM). The value in % activation based on the Ca^2+ signal after addition of Lys-Des-Arg^9-bradykinin (0.5 nM) or Des-Arg^9-bradykinin (100 nM) is obtained therefrom. After incubation for 10 minutes, 0.5 nM Lys-Des-Arg^9-bradykinin (hB1R) or 100 nM Des-Arg^9-bradykinin (rB1R) are applied and the inflow of Ca^2+ is likewise determined. Antagonists lead to a suppression of the Ca^2+ inflow. % inhibition compared with the maximum inhibition which can be achieved is calculated. The compounds show a good activity on the human and on the rat receptor. The following data were determined by way of example: […]

Compound	inhibition at 10 µM [1]	inhibition at 10 µM [2]
COc1ccc(S(=O)(=O)N2CCC(OCC(=O)N3CCC(O)(c4ccccn4)CC3)C2)cc1OC (centres unmarked) [Example 52, 2-[1-(3,4-dimethoxy-phenylsulfonyl)-pyrrolidin-3-yloxy]-1-(4′-hydroxy-3′,4′,5′,6′-tetrahydro-2′H-[2,4′]bipyridinyl-1′-yl)-ethanone]	-10%	11.9%
CN(CCOCC(=O)N1CCC(O)(c2ccccn2)CC1)S(=O)(=O)c1ccc(F)cc1 [Example 56, 4-fluoro-N-{2-[2-(4′-hydroxy-3′,4′,5′,6′-tetrahydro-2′H-[2,4′]bipyridinyl-1′-yl)-2-oxo-ethoxy]-ethyl}-N-methyl-phenylsulfonamide]	-13.5%	-1.13%
O=C(COC1CCN(S(=O)(=O)c2ccc(F)cc2)C1)N1CCC(O)(c2ccccn2)CC1 (centres unmarked) [Example 58, 2-[1-(4-fluoro-phenylsulfonyl)-pyrrolidin-3-yloxy]-1-(4′-hydroxy-3′,4′,5′,6′-tetrahydro-2′H-[2,4′]bipyridinyl-1′-yl)-ethanone]	-23.8%	-7.05%
O=C(COC1CCN(S(=O)(=O)c2cccc(C(F)(F)F)c2)C1)N1CCC(O)(c2ccccn2)CC1 (centres unmarked) [Example 59, 1-(4′-hydroxy-3′,4′,5′,6′-tetrahydro-2′H-[2,4′]bipyridinyl-1′-yl)-2-[1-(3-trifluoromethyl-phenylsulfonyl)-pyrrolidin-3-yloxy]-ethanone]	-24%	16.6%
Cc1ccc(F)cc1S(=O)(=O)N(C)CCOCC(=O)N1CCC(O)(c2ccc(Cl)cc2)CC1 [Example 61, N-(2-(2-(4-(4-chlorophenyl)-4-hydroxypiperidin-1-yl)-2-oxoethoxy)ethyl)-5-fluoro-N,2-dimethylphenylsulfonamide]	56.2%	86.4%
Cc1ccc(F)cc1S(=O)(=O)N(C)CCOCC(=O)N1CCC(O)(Cc2ccccc2)CC1 [Example 62, N-{2-[2-(4-benzyl-4-hydroxy-piperidin-1-yl)-2-oxo-ethoxy]-ethyl}-5-fluoro-2,N-dimethyl-phenylsulfonamide]	7.47%	22.9%
O=C(COCC1CCCCN1S(=O)(=O)c1cccc2ccccc12)N1CCC(O)(c2ccc(Cl)cc2)CC1 (centres unmarked) [Example 63, 1-(4-(4-chlorophenyl)-4-hydroxypiperidin-1-yl)-2-((1-(naphthalen-1-ylsulfonyl)piperidin-2-yl)methoxy)ethanone]	84.8%	91.8%
O=C(COCC1CCCCN1S(=O)(=O)c1cccc2ccccc12)N1CCC(O)(Cc2ccccc2)CC1 (centres unmarked) [Example 64, 1-(4-benzyl-4-hydroxy-piperidin-1-yl)-2-[1-(naphthalene-1-sulfonyl)-piperidin-2-ylmethoxy]-ethanone]	69.2%	64.2%
O=C(COCC1CCCCN1S(=O)(=O)c1cccc(C(F)(F)F)c1)N1CCC(O)(Cc2ccccc2)CC1 (centres unmarked) [Example 65, 1-(4-benzyl-4-hydroxy-piperidin-1-yl)-2-[1-(3-trifluoromethyl-phenylsulfonyl)-piperidin-2-ylmethoxy]-ethanone]	21%	25.8%
Cc1cc(C)c(S(=O)(=O)N2CCCCC2COCC(=O)N2CCC(O)(c3ccc(Cl)cc3)CC2)c(C)c1 (centres unmarked) [Example 66, 1-(4-(4-chlorophenyl)-4-hydroxypiperidin-1-yl)-2-((1-(mesitylsulfonyl)piperidin-2-yl)methoxy)ethanone]	84.5%	99.2%
Cc1cc(C)c(S(=O)(=O)N2CCCCC2COCC(=O)N2CCC(O)(Cc3ccccc3)CC2)c(C)c1 (centres unmarked) [Example 67, 1-(4-benzyl-4-hydroxy-piperidin-1-yl)-2-[1-(2,4,6-trimethyl-phenylsulfonyl)-piperidin-2-ylmethoxy]-ethanone]	55.4%	86.5%
Cc1cc(C)c(S(=O)(=O)N2CCCCC2COCC(=O)N2CCC(O)(c3cccnc3)CC2)c(C)c1 (centres unmarked) [Example 68, 1-(4′-hydroxy-3′,4′,5′,6′-tetrahydro-2′H-[3,4′]bipyridinyl-1′-yl)-2-[1-(2,4,6-trimethyl-phenylsulfonyl)-piperidin-2-ylmethoxy]-ethanone]	74.9%	79%
O=C(COCc1sccc1N(Cc1ccccc1)S(=O)(=O)c1ccc(Cl)c(Cl)c1)N1CCC(O)(Cc2ccccc2)CC1 [Example 69, N-benzyl-N-{2-[2-(4-benzyl-4-hydroxy-piperidin-1-yl)-2-oxo-ethoxymethyl]-thiophen-3-yl}-3,4-dichloro-phenylsulfonamide]	9.45%	28.4%
CN(CCOCC(=O)N1CCC(O)(c2ccccn2)CC1)S(=O)(=O)c1cc(F)cc(F)c1 [Example 70, 3,5-difluoro-N-{2-[2-(4′-hydroxy-3′,4′,5′,6′-tetrahydro-2′H-[2,4′]bipyridinyl-1′-yl)-2-oxo-ethoxy]-ethyl}-N-methyl-phenylsulfonamide]	7.12%	-12.2%
CN(CCOCC(=O)N1CCC(O)(c2ccccn2)CC1)S(=O)(=O)c1cc(F)ccc1F [Example 71, 2,5-difluoro-N-{2-[2-(4′-hydroxy-3′,4′,5′,6′-tetrahydro-2′H-[2,4′]bipyridinyl-1′-yl)-2-oxo-ethoxy]-ethyl}-N-methyl-phenylsulfonamide]	-0.46%	4.46%
O=C(COCC1Cc2ccccc2CN1S(=O)(=O)c1ccc(F)cc1)N1CCC(O)(c2ccccn2)CC1 (centres unmarked) [Example 72, 2-[2-(4-fluoro-phenylsulfonyl)-1,2,3,4-tetrahydro-isoquinolin-3-ylmethoxy]-1-(4′-hydroxy-3′,4′,5′,6′-tetrahydro-2′H-[2,4′]bipyridinyl-1′-yl)-ethanone]	3.33%	18.7%
